This note sets out measurements from US5102873A (priority 1989, dated 1992).

Values joined by “and” are separate entries in the source; they are usually repeats but may differ in a detail not shown here. Equal values may be shown once. Where only a bound is given, the exact number is not on record here.

One data set relates to vaccinia virus. The data set can be described thus: microbe, parasite or virus in culture. It is filed as cell-based. To be noted: for IC50: Orthopoxvirus vaccinia, Vero, read-out: ID50 (inhibitory dose 50; 50% reduction in virus replication), vaccinia virus in Vero cells, called MIC50; for TI (therapeutic index, MTC/ID50) / Virus Rating (VR): Vero cells; for TI (therapeutic index, MTC/ID50): TI>50 indicates a useful compound; for Virus Rating (VR): VR >=1.0 significant, 0.5-0.9 marginal, <0.5 inactive, repeat lines are repeat tests.

The nature of data set [1]: Cytotoxicity of test compound to Vero host cells (minimum toxic concentration). The settings on record: monkey, MTC (minimum toxic concentration), footnote: lowest concentration giving 50% reduction in percent survival of viable host cells.

In the case of `N=c1c2ncn([C@@H]3O[C@H](CO)[C@@H](O)[C@H]3O)c2ncn1OCc1ccccc1[N+](=O)[O-].[O-][Cl+3]([O-])([O-])O` [Compound 2q, 1-(2-Nitrobenzyloxy)adenosine, perchloric acid salt], in the data set with vaccinia virus, the IC50 stood at 1.03 µg/mL; the “TI (therapeutic index, MTC/ID50)” value is 310 and 181. Also, in data set [1], the MCC is above 320 µg/mL.
For `N=c1c2ncn([C@@H]3O[C@H](CO)[C@@H](O)[C@H]3O)c2ncn1OCc1ccccc1C(F)(F)F.[O-][Cl+3]([O-])([O-])O` [Compound 2l, 1-(2-Trifluoromethylbenzyloxy)adenosine, perchloric acid salt], in the data set with vaccinia virus, the IC50 amounted to 0.82 µg/mL; the “TI (therapeutic index, MTC/ID50)” value was found to be 391; the “Virus Rating (VR)” value was above 2.2. This compound yielded an MCC in data set [1] above 320 µg/mL.
`N=c1c2ncn([C@@H]3O[C@H](CO)[C@@H](O)[C@H]3O)c2ncn1OCc1ccc(F)cc1.[O-][Cl+3]([O-])([O-])O` [Compound 2i, 1-(4-Fluorobenzyloxy)adenosine, perchloric acid salt]: in the data set with vaccinia virus, the IC50 was determined as 2.41 µg/mL; the “TI (therapeutic index, MTC/ID50)” value is 133 and 160. This compound registered an MCC in data set [1] above 320 µg/mL.
On to `Cc1ccc(C)c(COn2cnc3c(ncn3[C@@H]3O[C@H](CO)[C@@H](O)[C@H]3O)c2=N)c1.[O-][Cl+3]([O-])([O-])O` [Compound 2bb, 1-(2,5-Dimethylbenzyloxy)adenosine, perchloric acid salt], for which, in the data set on vaccinia virus, the IC50 was determined as 0.38 µg/mL; the “TI (therapeutic index, MTC/ID50)” value is > 850 and > 1350. In data set [1], this compound displayed an MCC of 320 µg/mL.
Consider `Cc1cccc(COn2cnc3c(ncn3[C@@H]3O[C@H](CO)[C@@H](O)[C@H]3O)c2=N)c1.[O-][Cl+3]([O-])([O-])O` [Compound 2a, 1-(3-Methylbenzyloxy)adenosine, perchloric acid salt], for which, in the data set with vaccinia virus, the IC50 was found to be 0.41 µg/mL; the “TI (therapeutic index, MTC/ID50)” value was 781 and 487; the “Virus Rating (VR)” value is above 2.4. Besides, in data set [1], the MCC was above 320 µg/mL.
As to `N=c1c2ncn([C@@H]3O[C@H](CO)[C@@H](O)[C@H]3O)c2ncn1OCc1ccc(F)c(F)c1.[O-][Cl+3]([O-])([O-])O` [Compound 2k, 1-(3,4-Difluorobenzyloxy)adenosine, perchloric acid salt], in the data set with vaccinia virus, the IC50 stood at 0.48 µg/mL; the “TI (therapeutic index, MTC/ID50)” value was 671 and 434; the “Virus Rating (VR)” value is recorded as above 2.3. In addition, in data set [1], the MCC is above 320 µg/mL.
For the compound `N=c1c2ncn([C@@H]3O[C@H](CO)[C@@H](O)[C@H]3O)c2ncn1OCc1cc(F)cc(F)c1.[O-][Cl+3]([O-])([O-])O` [Compound 2ff, 1-(3,5-Difluorobenzyloxy)adenosine, perchloric acid salt], in the data set with vaccinia virus, the IC50 amounted to 1.55 µg/mL; the “TI (therapeutic index, MTC/ID50)” value was 205 and 175; the “Virus Rating (VR)” value was above 2.0. In data set [1], this compound displayed an MCC above 320 µg/mL.
Consider `N=c1c2ncn([C@@H]3O[C@H](CO)[C@@H](O)[C@H]3O)c2ncn1OCc1ccccc1Cl.[O-][Cl+3]([O-])([O-])O` [Compound 2o, 1-(2-Chlorobenzyloxy)adenosine, perchloric acid salt], for which, in the data set with vaccinia virus, the IC50 was found to be 1.01 µg/mL; the “TI (therapeutic index, MTC/ID50)” value is 318 and 251. The MCC in data set [1] was above 320 µg/mL.
Regarding `N=c1c2ncn([C@@H]3O[C@H](CO)[C@@H](O)[C@H]3O)c2ncn1OCc1ccc(F)cc1F.[O-][Cl+3]([O-])([O-])O` [Compound 2j, 1-(2,4-Difluorobenzyloxy)adenosine, perchloric acid salt], in the data set with vaccinia virus, the IC50 stood at 0.31 µg/mL; the “TI (therapeutic index, MTC/ID50)” value is listed as 1029; the “Virus Rating (VR)” value is above 2.4. This compound registered an MCC in data set [1] above 320 µg/mL.
